Results on five compounds are retold here after patent publication US20190282703A1, “ECTONUCLEOTIDE PYROPHOSPHATASE-PHOSPHODIESTERASE (ENPP) CONJUGATES AND USES THEREOF” (Mavupharma, Inc., priority 2018, published 2019).

The target in experiment [1] is T1, human ENPP-1 enzyme (Homo sapiens, UniProt P22413).
T1 construct: purchased R&D Systems
T1 sequence (P22413 1-925): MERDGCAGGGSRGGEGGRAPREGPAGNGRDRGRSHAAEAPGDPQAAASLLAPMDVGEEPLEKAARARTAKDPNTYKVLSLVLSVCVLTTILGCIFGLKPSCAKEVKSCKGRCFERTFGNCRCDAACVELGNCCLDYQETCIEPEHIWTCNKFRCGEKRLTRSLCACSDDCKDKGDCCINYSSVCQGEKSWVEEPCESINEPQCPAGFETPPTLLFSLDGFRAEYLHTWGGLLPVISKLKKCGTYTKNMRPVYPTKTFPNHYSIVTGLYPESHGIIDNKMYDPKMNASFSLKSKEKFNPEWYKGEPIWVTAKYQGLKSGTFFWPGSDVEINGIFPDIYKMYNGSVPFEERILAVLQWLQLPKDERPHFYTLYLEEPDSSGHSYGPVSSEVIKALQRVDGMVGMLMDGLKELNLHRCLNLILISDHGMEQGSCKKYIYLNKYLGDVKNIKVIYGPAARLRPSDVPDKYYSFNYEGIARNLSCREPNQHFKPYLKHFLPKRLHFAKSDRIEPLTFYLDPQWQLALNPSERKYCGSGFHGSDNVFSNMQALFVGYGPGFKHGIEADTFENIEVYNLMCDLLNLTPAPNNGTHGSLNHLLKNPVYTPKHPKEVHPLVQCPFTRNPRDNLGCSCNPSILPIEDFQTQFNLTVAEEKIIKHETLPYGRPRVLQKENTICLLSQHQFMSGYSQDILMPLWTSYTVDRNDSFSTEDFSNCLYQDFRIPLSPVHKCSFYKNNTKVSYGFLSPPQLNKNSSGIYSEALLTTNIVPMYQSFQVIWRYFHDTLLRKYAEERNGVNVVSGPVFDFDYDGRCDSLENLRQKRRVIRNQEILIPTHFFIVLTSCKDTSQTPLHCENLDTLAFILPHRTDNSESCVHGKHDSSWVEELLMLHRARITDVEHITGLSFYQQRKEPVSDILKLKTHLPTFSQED
The experiment in a line: ENPP1 Enzyme Assay with TMP-pNP Substrate (absorbance at 405 nm). To be noted: for inhibition at 10 µM: read-out: TMP-pNP: % inhibition at 10 uM, 10 uM compound, 200 μM TMP-pNP substrate. The experiment is classed as biochemical. On the procedure:
ENPP1 Enzyme Assay with TMP-pNP Substrate:
ENPP-1 hydrolyzes thymidine 5′monophosphate p-nitrophenyl ester (TMP-pNP) to nucleotide-5′-monophosphate and p-nitrophenol, which is a chromogenic product. The amount of p-nitrophenol product formed is measured using its absorbance at 405 nm, which is directly proportional to enzyme activity. Different concentrations of inhibitors (synthetic molecules #1-7; see Table 1) were pre-incubated with 15 ng/well of human ENPP-1 enzyme (R&D Systems) for 15 minutes at 37° C. The reaction was initiated by adding 200 μM TMP-pNP and incubating for 10 minutes at 37° C. The final assay reaction mixture contained a buffer of 50 mM Tris pH 8.0, 250 mM NaCl, 0.5 mM CaCl2, 1 μM ZnCl2 and 1% DMSO. The amount of product formed was measured directly in a Tecan® spectrophotometer. Maximal activity control samples (containing enzyme, substrate, and buffer in the absence of ENPP1 inhibitors: MAX) and background control samples (containing enzyme, substrate, and buffer plus a fully inhibitory concentration (3 μM) of the reference ENPP1 Inhibitor, MV-0000002: MIN) are simultaneously evaluated in order to calculate the percent inhibition at each compound concentration as follows:
(§1) % inhibition=(([MAX−MIN]−[COMPOUND−MIN])/[MAX−MIN])*100
The IC50 values for percent inhibition versus compound concentration were determined by fitting the inhibition curves (percent inhibition versus inhibitor concentration) using a four-parameter variable slope model in GraphPad Prism® software. Ki values are derived from the IC50 values using the Cheng-Prusoff equation:
Ki=IC50/(1+[TMP-pNP]/Km),

Experiment [2] concerns the target T1, human ENPP-1 enzyme. Nature of the experiment: ENPP1 Enzyme Assay with cGAMP Substrate (AMP-Glo). It counts as biochemical. The following applies: for inhibition at 1 µM: 1 uM compound; for inhibition at 1 µM / inhibition at 10 µM: 20 μM 2′3′-cGAMP substrate; for inhibition at 10 µM: 10 uM compound.
Source text: ENPP1 Enzyme Assay with cGAMP Substrate:
Ectonucleotide pyrophosphatase/phosphodiesterase 1 (ENPP-1) is a transmembrane glycoprotein that hydrolyzes nucleotides and nucleotide derivatives with the formation of nucleoside-5′-monophosphates. ENPP-1 hydrolyzes 2′3′-cGAMP (cGAMP), breaking it down into 5′-AMP and 5′-GMP. The 5′-AMP formed from the reaction is detected using the AMP-Glo® Kit (Promega). The assay kit contains two reagents. The first reagent terminates the enzymatic reaction, removes ATP (using adenylyl cyclase), and converts 5′-AMP produced into ADP (using polyphosphate: AMP phosphotransferase). The second reagent converts ADP to ATP (using adenylate kinase) and generates light from ATP using the luciferin/luciferase reaction. The amount of light measured is proportional to the amount of 5′-AMP produced by ENPP1.
Different concentrations of exemplary ENPP1 inhibitors (synthetic molecules #1-7; see Table 1) were pre-incubated with 5 ng/well of human ENPP-1 enzyme (R&D Systems) for 15 minutes at 37° C. The reaction was initiated by adding 20 μM 2′3′-cGAMP and incubating for 30 minutes at 37° C. The final assay reaction mixture contained a buffer of 50 mM Tris pH 8.0, 250 mM NaCl, 0.5 mM CaCl2, 1 μM ZnCl2 and 1% DMSO. At the end of the incubation, the reaction was stopped by adding 12 μl of AMP-Glo reagent-1 and mixing the reaction uniformly for 5 minutes, followed by incubation at room temperature for one hour. Then 25 μl of AMP Glo reagent-2 was added to the reaction, mixed uniformly with a pipette, and incubated at room temperature for one hour to convert the ADP formed from reagent-1 to ATP and light. The generated light was measured in a Perkin Elmer Victor® instrument. Maximal activity control samples (containing enzyme, substrate, and buffer in the absence of ENPP1 inhibitors: MAX) and background control samples (containing enzyme, substrate, and buffer plus a fully inhibitory concentration (3 μM) of the reference ENPP1 Inhibitor, MV-0000002: MIN) were simultaneously evaluated in order to calculate the percent inhibition at each compound concentration as follows:
as §1
The IC50 values for percent inhibition versus compound concentration were determined by fitting the inhibition curves using a four-parameter variable slope model in GraphPad Prism® software. Ki values are derived from the IC50 values using the Cheng-Prusoff equation: […]

SMILES strings stand for the structures. Where only a bound is given, the exact number is not on record here.

Regarding `COc1cc2ncc(C(N)=O)c(N3CCC(CCNS(N)(=O)=O)CC3)c2cc1OC` [Ex 2, 6,7-dimethoxy-4-(4-(2-(sulfamoylamino)ethyl)piperidin-1-yl)quinoline-3-carboxamide], the inhibition (as a rule, the percentage by which the read-out fell short of the control) at 10 µM at human ENPP-1 enzyme [1] was no less than 75%. The compound also came in with an inhibition at 1 µM against human ENPP-1 enzyme [2] of no less than 75%.

Consider `Cn1ncc2c(N3CCC(CCNS(N)(=O)=O)CC3)ncnc21` [Ex 3, N-(2-(1-(1-methyl-1H-pyrazolo[3,4-d]pyrimidin-4-yl)piperidin-4-yl)ethyl)sulfonic amide], for which, at human ENPP-1 enzyme [1], the Ki (usually the dissociation constant of the complex between target and ligand, obtained from inhibition or displacement) was greater than 1 µM. At human ENPP-1 enzyme [2], this compound had an inhibition constant (Ki) greater than 1 µM and an inhibition at 10 µM of no less than 75%.

On to `COc1cc2ncnc(N3CCC4(CC3)CN(S(N)(=O)=O)C4)c2cc1OC` [Ex 5, 7-(6,7-dimethoxyquinazolin-4-yl)-2,7-diazaspiro[3.5]nonane-2-sulfonamide], for which, on human ENPP-1 enzyme [1], the Ki fell in the range of 0.1 to 1 µM and the inhibition at 10 µM was no less than 75%. On human ENPP-1 enzyme [2], this compound registered a Ki of no more than 0.1 µM and an inhibition at 10 µM of no less than 75%.

`COc1cc2ncnc(N3CCc4c(cccc4S(N)(=O)=O)C3)c2cc1OC` [Ex 6, 2-(6,7-dimethoxyquinazolin-4-yl)-1,2,3,4-tetrahydroisoquinoline-5-sulfonamide]: the Ki at human ENPP-1 enzyme [1] is greater than 1 µM. On human ENPP-1 enzyme [2], this compound displayed an inhibition constant Ki of 0.1 to 1 µM and an inhibition at 1 µM of no less than 75%.

In turn, `COc1cc2ncnc(NCCc3cccc(NS(N)(=O)=O)c3)c2cc1OC` [Ex 7, N-(3-(2-((6,7-dimethoxyquinazolin-4-yl)amino)ethyl)phenyl)sulfonic amide] gave an inhibition constant (Ki) on human ENPP-1 enzyme [1] greater than 1 µM. On human ENPP-1 enzyme [2], this compound yielded a Ki of 0.1 to 1 µM and an inhibition at 10 µM of no less than 75%.
